Patent US11161844B2, “Cyclic substituted imidazo[4,5-c]quinoline derivatives” (Pfizer Inc., priority 2017, dated 2021)

What was measured:
[1] = target: LRRK2, WT (GST-tagged truncated LRRK2) (Homo sapiens (Human), UniProt Q5S007); assay: LRRK2 kinase assay (Lantha Screen), wild type; format: biochemical; details: 100 nM LRRKtide, 1 mM ATP, 2 μg/mL enzyme; geometric mean of 2-4 determinations unless otherwise indicated
Description: (§1) LRRK2 kinase activity was measured using Lantha Screen technology from Invitrogen. GST-tagged truncated LRRK2 from Invitrogen (Cat #PV4874) was incubated with a fluorescein-labeled peptide substrate based upon ezrin/radixin/moesin (ERM), also known as LRRKtide (Invitrogen cat #PR8976A), in the presence of a dose response of compound. Upon completion, the assay was stopped and detected with a terbium labeled anti-phospho-ERM antibody (Invitrogen, cat #PR8975A). The assay was carried out under the following protocol: The compound dose response was prepared by diluting compound to a top concentration of 0.3 mM in 100% DMSO and serial diluted by half-log in DMSO to give an 11 point curve, 100× final assay concentration. Using Echo acoustic dispensing, 60 nL of compound was transferred to a low volume Corning 384-well assay plate. 3 μL of a working solution of substrate (200 nM LRRKtide, 2 mM ATP) prepared in assay buffer (50 mM HEPES, pH 7.5, 3 mM MgCl2, with 2 mM DTT and 0.01% Brij35 added fresh) was added to the 60 nL compound assay plate. The kinase reaction was started with 3 μL of a working solution of LRRK2 enzyme at a concentration of 4 μg/mL. The final reaction concentrations were 100 nM LRRKtide, 1 mM ATP, 2 μg/mL LRRK2 enzyme and a compound dose response with a top dose of 3 μM. The reaction was allowed to progress at room temperature for 30 minutes and then stopped with the addition of 6 μL of detection buffer (20 mM Tris pH 7.6, 0.01% NP-40, 6 mM EDTA with 2 nM terbium labeled anti-phospho-ERM). After an incubation of 1 hour at room temperature, the plate was read on an Envision with an excitation wavelength of 340 nm and a reading emission at both 520 nm and 495 nm. The ratio of the 520 nm and 495 nm emission was used to analyze the data. Inhibition of mutant G2019S LRRK2 (Invitrogen cat #PV4881) was measured in the exact same method. All final concentrations of substrate ATP and enzyme were the same.

mutant G2019S LRRK2 = mutant G2019S LRRK2 (Homo sapiens (Human), UniProt Q5S007, G2019S); assay: LRRK2 kinase assay (Lantha Screen), mutant G2019S; format: biochemical; details: 100 nM LRRKtide, 1 mM ATP, 2 μg/mL enzyme; single determination unless otherwise indicated
Description: as §1

Sequence of LRRK2, WT (GST-tagged truncated LRRK2) (Q5S007 970-2527): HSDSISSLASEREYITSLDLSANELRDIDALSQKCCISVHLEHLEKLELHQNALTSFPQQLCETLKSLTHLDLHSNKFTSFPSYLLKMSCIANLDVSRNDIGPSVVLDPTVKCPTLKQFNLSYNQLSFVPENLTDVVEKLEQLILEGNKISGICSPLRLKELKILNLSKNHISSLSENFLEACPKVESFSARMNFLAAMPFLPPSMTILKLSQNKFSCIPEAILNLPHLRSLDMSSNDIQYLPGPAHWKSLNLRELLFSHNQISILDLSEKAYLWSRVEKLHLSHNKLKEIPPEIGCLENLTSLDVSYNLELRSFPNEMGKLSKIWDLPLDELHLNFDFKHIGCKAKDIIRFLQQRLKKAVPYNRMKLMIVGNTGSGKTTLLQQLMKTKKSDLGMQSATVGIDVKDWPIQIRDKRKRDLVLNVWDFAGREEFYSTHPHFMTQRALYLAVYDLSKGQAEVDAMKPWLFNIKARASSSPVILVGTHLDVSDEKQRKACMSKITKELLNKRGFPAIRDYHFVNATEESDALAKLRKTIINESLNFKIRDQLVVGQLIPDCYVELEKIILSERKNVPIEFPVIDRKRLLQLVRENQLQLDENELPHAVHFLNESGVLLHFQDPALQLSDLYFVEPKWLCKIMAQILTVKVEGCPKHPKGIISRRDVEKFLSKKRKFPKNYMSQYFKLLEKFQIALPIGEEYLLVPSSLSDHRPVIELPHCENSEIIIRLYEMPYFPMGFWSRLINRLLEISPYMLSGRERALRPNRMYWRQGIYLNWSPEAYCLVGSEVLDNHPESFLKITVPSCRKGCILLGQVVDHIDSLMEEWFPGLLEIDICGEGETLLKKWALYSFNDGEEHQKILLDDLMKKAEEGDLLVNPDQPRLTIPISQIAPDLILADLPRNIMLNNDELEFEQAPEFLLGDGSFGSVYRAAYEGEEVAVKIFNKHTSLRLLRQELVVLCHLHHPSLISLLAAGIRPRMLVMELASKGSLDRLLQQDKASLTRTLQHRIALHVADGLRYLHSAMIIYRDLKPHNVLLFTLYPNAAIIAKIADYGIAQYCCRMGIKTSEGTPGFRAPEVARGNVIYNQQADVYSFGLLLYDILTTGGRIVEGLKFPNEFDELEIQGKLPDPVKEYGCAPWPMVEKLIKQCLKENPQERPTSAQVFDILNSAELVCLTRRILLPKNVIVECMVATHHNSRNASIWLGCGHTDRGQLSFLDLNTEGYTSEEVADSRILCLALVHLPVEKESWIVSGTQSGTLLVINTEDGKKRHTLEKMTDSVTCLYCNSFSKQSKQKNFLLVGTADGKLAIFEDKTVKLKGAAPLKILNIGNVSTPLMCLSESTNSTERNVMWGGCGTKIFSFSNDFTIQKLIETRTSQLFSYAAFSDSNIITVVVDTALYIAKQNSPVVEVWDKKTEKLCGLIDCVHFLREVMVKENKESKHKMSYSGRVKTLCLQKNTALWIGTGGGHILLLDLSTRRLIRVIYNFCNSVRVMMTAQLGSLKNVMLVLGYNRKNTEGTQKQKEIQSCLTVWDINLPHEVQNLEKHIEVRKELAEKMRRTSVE
Sequence of mutant G2019S LRRK2 (Q5S007 970-2527 G2019S): as the sequence (Q5S007 970-2527) above, with G1050S counted along it

| SMILES | IC50 [1] | IC50 (mutant G2019S LRRK2) |
| --- | --- | --- |
| C[C@@H]1C[C@H](n2c(C3CCC(F)C3)nc3cnc4ccc(C#N)cc4c32)CCO1 (stereo partly drawn) [Example 14, 2-[(cis)-3-fluorocyclopentyl]-1-[(2R,4R)-2-methyltetrahydro-2H-pyran-4-yl]-1H-imidazo[4,5-c]quinoline-8-carbonitrile] | 15.2 nM | 10.8 nM |
| C[C@@H]1C[C@H](n2c3c(cnc4ccc(C#N)cc43)nc2[C@H]2CC[C@@H](F)CC2)CCO1 [Example 15, 2-(cis-4-fluorocyclohexyl)-1-[(2R,4R)-2-methyltetrahydro-2H-pyran-4-yl]-1H-imidazo[4,5-c]quinoline-8-carbonitrile] | 6.75 nM | 8.3 nM |
| C[C@@H]1C[C@H](n2c([C@H]3CCOC3)nc3cnc4ccc(C#N)cc4c32)CCO1 [Example 16, 1-[(2R,4R)-2-methyltetrahydro-2H-pyran-4-yl]-2-[(3R)-tetrahydrofuran-3-yl]-1H-imidazo[4,5-c]quinoline-8-carbonitrile] | 16.2 nM | 10.6 nM |
| C[C@@H]1C[C@H](n2c(C3CCC(F)(F)CC3)nc3cnc4ccc(C#N)cc4c32)CCO1 [Example 17, 2-(4,4-difluorocyclohexyl)-1-[(2R,4R)-2-methyltetrahydro-2H-pyran-4-yl]-1H-imidazo[4,5-c]quinoline-8-carbonitrile] | 15.6 nM | 11.2 nM |
| C[C@@H]1C[C@H](n2c3c(cnc4ccc(C#N)cc43)nc2[C@H]2C[C@@](C)(F)C2)CCO1 [Example 18, 2-(cis-3-fluoro-3-methylcyclobutyl)-1-[(2R,4R)-2-methyltetrahydro-2H-pyran-4-yl]-1H-imidazo[4,5-c]quinoline-8-carbonitrile] | 10.4 nM | 8.4 nM |
| C[C@@H]1C[C@H](n2c3c(cnc4ccc(C#N)cc43)nc2[C@H]2C[C@@H](F)C2)CCO1 [Example 19, 2-(cis-3-fluorocyclobutyl)-1-[(2R,4R)-2-methyltetrahydro-2H-pyran-4-yl]-1H-imidazo[4,5-c]quinoline-8-carbonitrile] | 16.1 nM | 12.4 nM |
| C[C@@H]1C[C@H](n2c(C3CCCCC3(F)F)nc3cnc4ccc(C#N)cc4c32)CCO1 (stereo partly drawn) [Example 20, 2-(2,2-difluorocyclohexyl)-1-[(2R,4R)-2-methyltetrahydro-2H-pyran-4-yl]-1H-imidazo[4,5-c]quinoline-8-carbonitrile] | 17.7 nM | 10.4 nM |
| CN1CC[C@@H](n2c3c(cnc4ccc(C#N)cc43)nc2[C@H]2C[C@@](C)(F)C2)C1 [Example 22, 2-(cis-3-fluoro-3-methylcyclobutyl)-1-[(3R)-1-methylpyrrolidin-3-yl]-1H-imidazo[4,5-c]quinoline-8-carbonitrile] | 14.2 nM | 36.5 nM |
| CN1CC[C@@H](n2c3c(cnc4ccc(C#N)cc43)nc2[C@H]2CC[C@@H](F)CC2)C1 [Example 23, 2-(cis-4-fluorocyclohexyl)-1-[(3R)-1-methylpyrrolidin-3-yl]-1H-imidazo[4,5-c]quinoline-8-carbonitrile] | 10.9 nM | 33 nM |
| CN1CC[C@@H](n2c3c(cnc4ccc(C#N)cc43)nc2[C@H]2C[C@@H](F)C2)C1 [Example 24, 2-(cis-3-fluorocyclobutyl)-1-[(3R)-1-methylpyrrolidin-3-yl]-1H-imidazo[4,5-c]quinoline-8-carbonitrile] | 5.27 nM | 22.4 nM |
| CN1CC[C@@H](n2c([C@H]3CCOC3)nc3cnc4ccc(C#N)cc4c32)C1 [Example 25, 1-[(3R)-1-methylpyrrolidin-3-yl]-2-[(3R)-tetrahydrofuran-3-yl]-1H-imidazo[4,5-c]quinoline-8-carbonitrile] | 32.5 nM | 80 nM |

More lines, now with the values ahead:

| IC50 [1] | IC50 (mutant G2019S LRRK2) | SMILES |
| --- | --- | --- |
| 9.79 nM | 5.71 nM | C[C@@H]1C[C@H](n2c([C@H]3CCOC3)nc3cnc4ccc(C(F)(F)F)cc4c32)CCO1 [Example 26, 1-[(2R,4R)-2-methyltetrahydro-2H-pyran-4-yl]-2-[(3R)-tetrahydrofuran-3-yl]-8-(trifluoromethyl)-1H-imidazo[4,5-c]quinoline] |
| 9.71 nM | 5.12 nM | N#CC[C@@H]1C[C@H](n2c3c(cnc4ccc(Cl)cc43)nc2[C@H]2CC[C@@H](F)CC2)CCO1 [Example 28, {(2S,4R)-4-[8-chloro-2-(cis-4-fluorocyclohexyl)-1H-imidazo[4,5-c]quinolin-1-yl]tetrahydro-2H-pyran-2-yl}acetonitrile] |
| 6.53 nM | 4.63 nM | N#CC[C@@H]1C[C@H](n2c3c(cnc4ccc(F)cc43)nc2[C@H]2CC[C@@H](F)CC2)CCO1 [Example 29, {(2S,4R)-4-[8-fluoro-2-(cis-4-fluorocyclohexyl)-1H-imidazo[4,5-c]quinolin-1-yl]tetrahydro-2H-pyran-2-yl}acetonitrile] |
| 6.06 nM | 3.02 nM | N#CCC1CC(n2c([C@H]3CCOC3)nc3cnc4ccc(Cl)cc4c32)CCO1 (stereo partly drawn) [Example 30, [cis-4-{8-chloro-2-[(3R)-tetrahydrofuran-3-yl]-1H-imidazo[4,5-c]quinolin-1-yl}tetrahydro-2H-pyran-2-yl]acetonitrile] |
| 19.6 nM | 37.9 nM | CN1CC[C@@H](n2c(C3CCC(F)C3)nc3cnc4ccc(C#N)cc4c32)C1 (stereo partly drawn) [Example 32, 2-[cis-3-fluorocyclopentyl]-1-[(3R)-1-methylpyrrolidin-3-yl]-1H-imidazo[4,5-c]quinoline-8-carbonitrile] |
| 6.56 nM | 4.3 nM | CN1CC[C@@H](n2c(C3CCC(F)C3)nc3cnc4ccc(C#N)cc4c32)C1 (stereo partly drawn) [Example 33, 2-[cis-3-fluorocyclopentyl]-1-[(3R)-1-methylpyrrolidin-3-yl]-1H-imidazo[4,5-c]quinoline-8-carbonitrile] |
| 59.6 nM | 77 nM | CN1CC[C@@H](n2c(C3CCC(F)C3)nc3cnc4ccc(F)cc4c32)C1 (stereo partly drawn) [Example 34, 8-fluoro-2-[cis-3-fluorocyclopentyl]-1-[(3R)-1-methylpyrrolidin-3-yl]-1H-imidazo[4,5-c]quinoline] |
| 4.65 nM | 4.41 nM | CC1(C)CC(n2c(C3CCC(F)C3)nc3cnc4ccc(C#N)cc4c32)CCO1 (stereo not shown) [Example 39, 1-(2,2-dimethyltetrahydro-2H-pyran-4-yl)-2-(3-fluorocyclopentyl)-1H-imidazo[4,5-c]quinoline-8-carbonitrile] |
| 7.14 nM | 4.33 nM | CC1(C)CC(n2c(C3CCC(F)C3)nc3cnc4ccc(C#N)cc4c32)CCO1 (stereo not shown) [Example 40, 1-(2,2-dimethyltetrahydro-2H-pyran-4-yl)-2-(3-fluorocyclopentyl)-1H-imidazo[4,5-c]quinoline-8-carbonitrile] |
| 64.1 nM | 49.6 nM | CC1(C)CC(n2c(C3CCC(F)C3)nc3cnc4ccc(C#N)cc4c32)CCO1 (stereo not shown) [Example 41, 1-(2,2-dimethyltetrahydro-2H-pyran-4-yl)-2-(3-fluorocyclopentyl)-1H-imidazo[4,5-c]quinoline-8-carbonitrile] |
| 46.1 nM | 46 nM | CC1(C)CC(n2c(C3CCC(F)C3)nc3cnc4ccc(C#N)cc4c32)CCO1 (stereo not shown) [Example 42, 1-(2,2-dimethyltetrahydro-2H-pyran-4-yl)-2-(3-fluorocyclopentyl)-1H-imidazo[4,5-c]quinoline-8-carbonitrile] |
| 4.54 nM | 5.94 nM | CN1CC(n2c(C3CCC(F)C3)nc3cnc4ccc(C#N)cc4c32)C(F)(F)C1 (stereo not shown) [Example 57, 1-(4,4-difluoro-1-methylpyrrolidin-3-yl)-2-(3-fluorocyclopentyl)-1H-imidazo[4,5-c]quinoline-8-carbonitrile] |
| 12.2 nM | 21.2 nM | CN1CC(n2c(C3CCC(F)C3)nc3cnc4ccc(C#N)cc4c32)C(F)(F)C1 (stereo not shown) [Example 58, 1-(4,4-difluoro-1-methylpyrrolidin-3-yl)-2-(3-fluorocyclopentyl)-1H-imidazo[4,5-c]quinoline-8-carbonitrile] |
| 30.5 nM | 141 nM | CN1CC(n2c(C3CCC(F)C3)nc3cnc4ccc(C#N)cc4c32)C(F)(F)C1 (stereo not shown) [Example 59, 1-(4,4-difluoro-1-methylpyrrolidin-3-yl)-2-(3-fluorocyclopentyl)-1H-imidazo[4,5-c]quinoline-8-carbonitrile] |
| 57.1 nM | 97.4 nM | CN1CC(n2c(C3CCC(F)C3)nc3cnc4ccc(C#N)cc4c32)C(F)(F)C1 (stereo not shown) [Example 60, 1-(4,4-difluoro-1-methylpyrrolidin-3-yl)-2-(3-fluorocyclopentyl)-1H-imidazo[4,5-c]quinoline-8-carbonitrile] |
